Target: T1, MAGE-A11:PCF11 interaction (GST-MAGE-A11 and FAM-PCF11_4) (Homo sapiens, UniProt P43364)
T1 construct: GST-MAGE-A11 MHD (human MAGE-A11 MHD amino acid 218-429); made in house; host or cells: E. coli BL21(DE3)
T1 sequence (P43364 218-429): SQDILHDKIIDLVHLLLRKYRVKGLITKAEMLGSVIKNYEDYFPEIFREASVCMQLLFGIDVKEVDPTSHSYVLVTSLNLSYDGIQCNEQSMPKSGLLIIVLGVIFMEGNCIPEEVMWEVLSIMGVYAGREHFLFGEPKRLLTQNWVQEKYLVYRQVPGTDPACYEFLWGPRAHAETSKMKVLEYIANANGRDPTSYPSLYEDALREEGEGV
Experiment: TR-FRET primary / single point screen at 15 µM
Assay type: binding
Experimental: The TR-FRET assay buffer with a formula of 50 mM Tris pH 7.5, 20 mM MgCl2, 0.1 mg/ml BSA and 1 mM DTT was freshly prepared before each experiment. All TR-FRET assays were performed in black 384-well plates with 20 µl/well assay volume in the TR-FRET assay buffer at room temperature (~25 °C). All peptides or compounds were solubilized in DMSO. To test the competitive activity of peptides or compounds against the interaction between GST-MAGE-A11 MHD and FAM-PCF11_4 peptide, 10 µl/well peptide or compound at specified concentration was dispensed into a black 384-well low volume plate, followed by 5 µl/well FAM-PCF11_4 (800 nM), 5 µl/well Tb-anti-GST (20 nM), and GST-MAGE-A11 MHD (20 nM). The assay components in each well was then mixed by shaking the plate on an IKA MTS 2/4 digital microtiter plate shaker (IKA Works; Wilmington, NC, USA) for 1 min. The plate was further centrifuged in an Eppendorf 5810 centrifuge with an A-4-62 swing-bucket rotor (Eppendorf AG, Hamburg, Germany) at 201 g for 30 s. The plate was then incubated for 90 min with a lid to avoid light exposure to the assay components. After incubation, the fluorescent emission signals at 520 nm and 490 nm channels of individual wells were measured with a PHERAstar FS plate reader (BMG Labtech; Durham, NC, USA) by using a 340 nm excitation filter, 100 µs delay time, and 200 µs integration time. The TR-FRET fluorescence emission ratio (TR-FRET signal) for each well was presented as 10,000 × 520 nm/490 nm, which was used directly for curve fitting, or further converted to %Inhibition based on the respective positive and negative controls. The graphic software GraphPad Prism 4.81 (GraphPad Software; La Jolla, CA, USA) was used to generate curves and derive IC50 values of tested peptides or compounds, if applicable. TR-FRET screen for identifying MAGE-A11 small molecule inhibitors was performed as follows. The primary one-concentration screening and subsequent 10 or 20-concentration dose-response tests were accomplished with an automated High Throughput Screening system (HighRes Biosolutions, Beverly, MA)[30]. In the primary screening, 15 µl/well FAM-PCF11_4 (267 nM) was first dispensed with a Multidrop Combi Reagent Dispenser (Thermo Fisher Scientific, Waltham, MA) to black 384-well low-volume assay plates. The plates were spun down with a Velocity11 VSpin microplate centrifuge (Agilent Technologies, Santa Clara, CA). In total, 30 nl/well of 10 mM compound/DMSO solutions, or DMSO alone, were transferred from compound plates (the St. Jude FDA drug and bioactive library, Drug-like library and Lead-like library) or a control plate to the assay plates with a Pin Tool (V&P Scientific, San Diego, CA). The compounds were arrayed in columns 3–12 and columns 15–24 of compound plates. The controls were arrayed in columns 1, 2, 13, and 14 of a compound plate. In all, 5 µl/well Tb-anti-GST (20 nM) and GST-MAGE-A11 (20 nM) or 5 µl/well Tb-anti-GST (20 nM) alone was then dispensed to selected wells with a Multidrop Combi Reagent Dispenser. The final assay volume was 20 µl/well. […] The final tested compound concentration was 15 µM. The final FAM-PCF11_4 concentration was 200 nM and the final Tb-anti-GST concentration was 5 nM. The final GST-MAGE-A11 concentration was 5 nM except for those selected positive control wells in which GST-MAGE-A11 was not presented. The plates were then shaken with a big bear shaker (Big Bear Automation, Santa Clara, California) and spun down with the Velocity11 VSpin microplate centrifuge for 20 s. The plates were then incubated at room temperature in a Liconic incubator (Liconic US, Woburn, MA) for 90 min. The TR-FRET signals for individual wells were measured with a PHERAstar FS plate reader. The %Inhibition of each tested inhibitor was calculated by using Eq. 1. Those inhibitors with %Inhibition >30% in the primary screening were selected for further dose-response test, along with additional newly synthesized compounds. […]

[1] = single point TR-FRET screening of 797 quinoline compounds against MAGE-A11:PCF11
[2] = single point TR-FRET screening of quinoline compounds against MAGE-A11:PCF11, 15 µM

percent inhibition (TR-FRET) [1]	percent inhibition (TR-FRET) [2]	Compound
-7.813	–	CCOC(=O)c1cnc2ccc(C(=O)OC)cc2c1NCCN1CCOCC1 [SJ000127079]
4.96	–	CCOC(=O)c1cnc2c(C)cc(Cl)cc2c1NCCN1CCOCC1 [SJ000129560]
–	-23.261	CCOC(=O)c1cnc2c(C)c(Cl)ccc2c1NCCCN1CCOCC1 [SJ000129912]
–	10.0613	CCOC(=O)c1cnc2c(C(F)(F)F)cccc2c1NCCCN1CCOCC1 [SJ000131358]
8.5376	–	CCOC(=O)c1cnc2c(C)c(C)ccc2c1NCCN(C)C [SJ000134078]
-6.529	–	CCOC(=O)c1cnc2c(Cl)cccc2c1NCCN1CCOCC1 [SJ000163436]
8.869	–	CCOC(=O)c1cnc2c(C)cc(C)cc2c1NCCN1CCOCC1 [SJ000172983]
–	6.494	CCOC(=O)c1cnc2c(C)cc(C)cc2c1NCCCN1CCOCC1 [SJ000173725]
–	-10.5199	CCOC(=O)c1cnc2c(C)cc(Cl)cc2c1NCCCN1CCOCC1 [SJ000174094]
-13.059	–	CCOC(=O)c1cnc2c(Cl)cc(Cl)cc2c1NCCN1CCOCC1 [SJ000175864]
–	-2.118	CCOC(=O)c1cnc2c(Cl)cc(Cl)cc2c1NCCCN1CCOCC1 [SJ000176476]
–	-22.0025	CCOC(=O)c1cnc2ccc(Br)cc2c1NCCCN1CCOCC1 [SJ000176507]
–	11.255	CCOC(=O)c1ccc2ncc(C(=O)OCC)c(NCCCN3CCOCC3)c2c1 [SJ000176583]
–	3.635	CCOC(=O)c1cnc2c(OC)cccc2c1NCCCN1CCOCC1 [SJ000180455]
4.043	–	CCOC(=O)c1cnc2c(C(=O)OC)cccc2c1NCCN1CCOCC1 [SJ000184799]
–	-4.499	CCOC(=O)c1cnc2c(CC)cccc2c1NCCCN1CCOCC1 [SJ000185196]
-0.9277	–	CCOC(=O)c1cnc2ccc(Cl)cc2c1N1CCN(C)CC1 [SJ000187322]
-38.6966	–	Cc1ccc(S(=O)(=O)N2CCN(c3ccnc4cc(Cl)ccc34)CC2)cc1 [SJ000192519]
-16.1911	–	CC(=O)Nc1ccc(S(=O)(=O)N2CCN(c3ccnc4cc(Cl)ccc34)CC2)cc1 [SJ000193862]
-32.0719	–	COc1ccc(S(=O)(=O)N2CCN(c3ccnc4cc(Cl)ccc34)CC2)cc1 [SJ000199955]
-16.7513	–	O=S(=O)(c1ccc(Br)cc1)N1CCN(c2ccnc3cc(Cl)ccc23)CC1 [SJ000201754]
-50.6426	–	O=S(=O)(c1ccc(F)cc1)N1CCN(c2ccnc3cc(Cl)ccc23)CC1 [SJ000203833]
-34.3905	–	O=S(=O)(c1ccc(Cl)cc1)N1CCN(c2ccnc3cc(Cl)ccc23)CC1 [SJ000204656]
-0.207	–	C=CCOCC(O)CN1CCN(c2cc(C)nc3ccccc23)CC1 (centres unmarked) [SJ000227652]
-4.954	–	Cc1cc(N2CCN(CC(O)CO)CC2)c2ccccc2n1 (centres unmarked) [SJ000227653]
-3.251	–	Cc1cc(N2CCN(CC(O)COCC(C)C)CC2)c2ccccc2n1 (centres unmarked) [SJ000227654]
6.55	–	C#CCOCC(O)CN1CCN(c2cc(C)nc3ccccc23)CC1 (centres unmarked) [SJ000227655]
-2.128	–	C=CCOCC(O)CN1CCN(c2cc(C(F)(F)F)nc3ccccc23)CC1 (centres unmarked) [SJ000228017]

More lines, now with the values behind:

Compound	percent inhibition (TR-FRET) [1]	percent inhibition (TR-FRET) [2]
CCc1ccc(S(=O)(=O)c2cnc3ccccc3c2N2CCN(c3ccccc3OC)CC2)cc1 [SJ000117069]	-47.4423	–
COc1ccccc1N1CCN(c2c(S(=O)(=O)c3ccc(Cl)cc3)cnc3ccc(C)cc23)CC1 [SJ000117070]	-15.3715	–
COc1ccc(N2CCN(c3c(S(=O)(=O)c4ccccc4)cnc4ccc(OC)cc34)CC2)cc1 [SJ000117071]	-32.6681	–
COc1ccc(N2CCN(c3c(S(=O)(=O)c4ccc(C)cc4)cnc4ccc(Cl)cc34)CC2)cc1 [SJ000117072]	-5.838	–
COc1ccc(N2CCN(c3c(S(=O)(=O)c4ccc(C)c(C)c4)cnc4ccc(F)cc34)CC2)cc1 [SJ000117073]	-13.2577	–
CCc1ccc(S(=O)(=O)c2cnc3ccccc3c2N2CCN(c3ccc(OC)cc3)CC2)cc1 [SJ000117074]	-11.204	–
COc1ccc(N2CCN(c3c(S(=O)(=O)c4ccc(Cl)cc4)cnc4ccc(C)cc34)CC2)cc1 [SJ000117075]	-3.122	–
COc1ccc2ncc(S(=O)(=O)c3ccc(C)cc3)c(N3CCN(c4ccccc4F)CC3)c2c1 [SJ000117076]	6.02	–
CCOc1ccc2ncc(S(=O)(=O)c3ccc(C)cc3)c(N3CCN(c4ccccc4F)CC3)c2c1 [SJ000117077]	5.159	–
COc1ccc2ncc(S(=O)(=O)c3ccc(C)c(C)c3)c(N3CCN(c4ccccc4F)CC3)c2c1 [SJ000117078]	-8.289	–
CCc1ccc(S(=O)(=O)c2cnc3ccccc3c2N2CCN(c3ccccc3F)CC2)cc1 [SJ000117079]	-56.5833	–
Cc1ccc(S(=O)(=O)c2cnc3ccccc3c2N2CCN(c3ccc(C)cc3C)CC2)cc1 [SJ000117080]	3.172	–
Cc1cccc(N2CCN(c3c(S(=O)(=O)c4ccccc4)cnc4ccccc34)CC2)c1C [SJ000117081]	-13.1252	–
COc1ccc2ncc(S(=O)(=O)c3ccccc3)c(N3CCN(c4cccc(C)c4C)CC3)c2c1 [SJ000117082]	-241.81	–
Cc1ccc(C)c(N2CCN(c3c(S(=O)(=O)c4ccccc4)cnc4ccc(F)cc34)CC2)c1 [SJ000117083]	-15.3776	–
Cc1ccc(S(=O)(=O)c2cnc3ccccc3c2N2CCN(c3cc(C)ccc3C)CC2)cc1 [SJ000117084]	2.443	–
COc1ccc2ncc(S(=O)(=O)c3ccc(C)cc3)c(N3CCN(Cc4ccccc4)CC3)c2c1 [SJ000117085]	-82.2209	–
CCc1ccc(S(=O)(=O)c2cnc3ccccc3c2N2CCN(Cc3ccccc3)CC2)cc1 [SJ000117086]	-55.2584	–
CCOC(=O)c1cnc2ccc(OC)cc2c1NCCCN1CCOCC1 [SJ000127046]	–	2.945
